The target in the assay is ROCK2 (human) (UniProt O75116). The experiment in a line: Assessment of ROCK2 Kinase Activity.
Sequence of ROCK2 (human) (O75116 whole entry, looked up): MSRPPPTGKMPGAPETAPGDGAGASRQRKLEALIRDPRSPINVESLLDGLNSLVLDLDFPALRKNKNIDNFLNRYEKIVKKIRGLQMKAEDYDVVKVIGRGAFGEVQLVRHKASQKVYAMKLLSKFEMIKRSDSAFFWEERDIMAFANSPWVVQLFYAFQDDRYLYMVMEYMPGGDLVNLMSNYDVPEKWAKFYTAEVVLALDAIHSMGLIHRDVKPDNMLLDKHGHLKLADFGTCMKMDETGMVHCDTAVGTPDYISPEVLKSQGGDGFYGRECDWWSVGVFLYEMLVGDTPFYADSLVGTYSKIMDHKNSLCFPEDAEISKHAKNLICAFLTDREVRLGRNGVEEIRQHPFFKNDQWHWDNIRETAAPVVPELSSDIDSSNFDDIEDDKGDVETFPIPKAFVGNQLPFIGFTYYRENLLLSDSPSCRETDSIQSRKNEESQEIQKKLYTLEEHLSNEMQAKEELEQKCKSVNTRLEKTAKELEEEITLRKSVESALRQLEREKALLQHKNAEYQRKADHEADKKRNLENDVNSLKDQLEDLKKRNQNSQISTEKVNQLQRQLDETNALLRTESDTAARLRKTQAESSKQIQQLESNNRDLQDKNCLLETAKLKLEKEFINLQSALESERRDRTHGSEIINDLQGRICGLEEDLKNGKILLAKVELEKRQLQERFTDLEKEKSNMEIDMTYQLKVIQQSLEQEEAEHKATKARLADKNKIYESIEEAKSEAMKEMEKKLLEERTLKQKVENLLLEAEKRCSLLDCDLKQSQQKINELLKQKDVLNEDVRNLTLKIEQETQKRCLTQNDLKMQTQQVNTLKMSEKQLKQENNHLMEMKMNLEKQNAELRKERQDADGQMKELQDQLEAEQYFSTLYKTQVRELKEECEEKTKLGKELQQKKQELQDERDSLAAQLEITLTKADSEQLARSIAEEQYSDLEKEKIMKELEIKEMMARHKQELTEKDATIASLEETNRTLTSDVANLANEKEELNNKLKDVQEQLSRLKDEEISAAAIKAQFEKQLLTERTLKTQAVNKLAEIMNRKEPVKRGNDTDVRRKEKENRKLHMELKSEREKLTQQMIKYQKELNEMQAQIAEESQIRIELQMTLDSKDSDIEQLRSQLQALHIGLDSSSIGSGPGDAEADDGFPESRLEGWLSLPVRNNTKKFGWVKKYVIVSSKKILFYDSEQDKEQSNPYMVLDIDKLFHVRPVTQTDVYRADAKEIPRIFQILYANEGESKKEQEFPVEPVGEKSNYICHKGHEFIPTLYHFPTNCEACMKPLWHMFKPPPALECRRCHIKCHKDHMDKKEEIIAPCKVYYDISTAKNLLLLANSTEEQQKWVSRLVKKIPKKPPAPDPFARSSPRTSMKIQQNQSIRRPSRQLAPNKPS

`Clc1c(OC2CCC(NC3CCCCC3)CC2)ccc2cnccc12` (stereo not given) displayed an IC50 not above 1000 nM. `N[C@H]1CC[C@H](Oc2c(Cl)cc3cnccc3c2Cl)CC1`: the IC50 is not above 1000 nM. The figure for `CCc1cncc2ccc(O[C@H]3CC[C@@H](N)CC3)cc12` is not above 1000 nM; for `CN(C)C=NS(=O)(=O)c1cc(CN[C@H]2CC[C@@H](Oc3ccc4cnccc4c3Cl)CC2)ccc1Cl` it is not above 1000 nM. The value for `COc1cc(Nc2cc3cc(O[C@H]4CC[C@@H](N)CC4)ccc3cn2)cc(OC)c1OC` was not above 1000 nM; that for `c1cncc(CN[C@H]2CC[C@@H](Oc3ccc4cnccc4c3)CC2)c1` was not above 1000 nM. The value for `c1cc2cc(O[C@H]3CC[C@@H](NC4CC4)CC3)ccc2cn1` was not above 1000 nM. Consider `C=Cc1c(O[C@H]2CC[C@@H](N)CC2)ccc2cnccc12`, for which the IC50 is not above 1000 nM. The figure for `CC1(c2ccc(CNC3CCC(Oc4ccc5cnccc5c4)CC3)cc2)NC(=O)NC1=O` (stereo not given) is not above 1000 nM. The figure for `N[C@H]1CC[C@@H](Oc2ccc3cnccc3c2Cl)CC1` is not above 1000 nM.

Compound `CC(=O)Nc1ccc(CN[C@H]2CC[C@@H](Oc3ccc4cnccc4c3)CC2)cc1` yielded an IC50 not above 1000 nM.

`CC(C)N[C@H]1CC[C@@H](Oc2ccc3cnccc3c2)CC1` had an IC50 not above 1000 nM. The value for `N[C@H]1CC[C@@H](Oc2ccc3cnccc3c2-c2ccsc2)CC1` was not above 1000 nM; that for `N[C@H]1CC[C@@H](Oc2ccc3cnccc3c2Br)CC1` was not above 1000 nM. Compound `N[C@H]1CC[C@@H](Oc2ccc3cncc(Cl)c3c2)CC1` had an IC50 not above 1000 nM.

The term IC50 denotes the concentration needed to halve the response being measured. Read a high IC50 as weaker potency in that assay.
